The text below walks through data of US8497283B2, “Autotaxin inhibitors” (Merck Patent GmbH, priority 2009, dated 2013).

For the experiment, the target named is T1, recombinant autotaxin (Homo sapiens, UniProt Q13822).
T1 construct: made in house; host or cells: Hi5 insect cells (baculovirus)
Put plainly: Autotaxin assay (Amplex Red fluorescence, LPC substrate). Type of experiment: biochemical. Conditions: for IC50: ten serial 1:3 dilutions starting at 30 μM, duplicates, 75 μM LPC, values given as upper bounds; for % CTRL (1E−05): percent of uninhibited control (100%) at 1E−05 M compound. On the procedure:
Autotaxin activity is measured indirectly by means of Amplex Red Reagent. In this course, Amplex Red is measured as fluorogenic indicator for generated H2O2. Autotaxin converts substrate lysophosphatidylcholine (LPC) to phosphocholine and lysophosphatidylic acid (LPA). After the conversion phosphocholine is reacted with alkaline phosphatase to obtain inorganic phosphate and choline. During the next step choline is oxidized with choline oxidase to yield betaine, whereby H2O2 is generated. H2O2 reacts with Amplex Red Reagent in the presence of peroxidase (Horseradish peroxidase) in an 1:1 stochiometry and yields highly fluorescent resorufin. The generated fluorescence is measured in a reaction-dependent kinetic mode in order to enable subtraction of fluorescence signals of possible other fluorescent compounds that are not part of the reaction from total measured fluorescence.
1.5 μl of a standard solution or of the compounds of the invention are dissolved in 20 mM Hepes pH 7.2 with maximally 7.7% DMSO in individual concentrations. The resulting solution is pre-incubated together with 10 μl (16 ng) of highly purified recombinant autotaxin in a black 384-hole microtiter plate for 30 min at 22° C.
Thereafter, the reaction is started through the addition of 5 μl L-a-lysophosphatidyl-choline (LPC), whereby the final concentration of LPC is 75 μM. The mixture is incubated for 90 min. at 37° C. After the incubation Amplex Red Reagent, peroxidase (Horseradish peroxidase) and choline oxidase are added. The fluorescence is immediately measured at a wavelength of 612 nm with an excitation wavelength of 485 nm in a “Tecan Ultra multimode” fluorescence reader. The activity of autotaxin is indirectly calculated via the amount of detected generated H2O2.
For IC50 analysis, ten serial 1:3 dilutions starting at 30 μM for each compound were run in duplicates.
IC50 values were calculated on normalized data. For normalization, control wells were added to each assay plate and the signal of uninhibited control wells was set to 100%, whereas the signal inhibited by 500 μM C14 LPA, (Avanti Polar Lipids, Cat#857120P) was set to 0%. Curves were fitted and IC50 values calculated by the following model using proprietory analysis software: Y=Bottom+(100−Bottom)/(1+10^((Log IC50−X)*HillSlope))
Where X is the logarithm of concentration. Y is the response;
Y starts at Bottom and goes to Top with a sigmoid shape.
Protein: Recombinant autotaxin (baculoviral Hi5 expression)
Substrate: L-a-lysophosphatidyl choline (chicken egg); Avanti Polar Lipids #830071P
Standard: C14 LPA, Avanti Polar Lipids, Cat#857120P
Detection Reagent Amplex Red Reagent; Invitrogen #A12222; dissolved in 1.923 ml of DMSO peroxidase Type VI-A (horseradish), Sigma #P6782; dissolved in 7.45 ml of test buffer, Choline Oxidase; Sigma #C5896; dissolved in 2.47 ml test buffer
Detection Reagent Mix: 1:100 dilution of Amplex Red Regent in test buffer
Test buffer: 200 mM Tris-HCl, Merck, Cat #1.08219, pH 7.9; 0.1% BSA, lipid free, Roche Cat#775835

Take `NC(=O)c1c(NC(=O)Nc2ccc(Cl)cc2)sc2c1CCN(C(=O)c1ccc3[nH]nnc3c1)C2` [Compound 1, 6-(1H-Benzotriazole-5-carbonyl)-2-[3-(4-chloro-phenyl)-ureido]-4,5,6,7-tetrahydro-thieno[2,3-c]pyridine-3-carboxylic acid amide]: the IC50 is below 1000 nM.

`NC(=O)c1c(NC(=O)Nc2ccc(Cl)cc2)sc2c1CCN(C(=O)c1ccc3[nH]c(=O)oc3c1)C2` [Compound 2, 2-[3-(4-Chloro-phenyl)-ureido]-6-(2-oxo-2,3-dihydro-benzooxazole-6-carbonyl)-4,5,6,7-tetrahydro-thieno[2,3-c]pyridine-3-carboxylic acid amide]: the half-inhibitory concentration (IC50) is below 1000 nM.

As to `NC(=O)c1c(NC(=O)Nc2ccc(C(F)(F)F)cc2)sc2c1CCN(C(=O)c1ccc3[nH]nnc3c1)C2` [Compound 3, 6-(1H-Benzotriazole-5-carbonyl)-2-[3-(4-trifluoromethyl-phenyl)-ureido]-4,5,6,7-tetrahydro-thieno[2,3-c]pyridine-3-carboxylic acid amide], the concentration for half-maximal inhibition (IC50) was below 1000 nM. Still for that read-out and setting: as for `CC(C)c1ccc(NC(=O)Nc2sc3c(c2C(N)=O)CCN(C(=O)c2ccc4[nH]nnc4c2)C3)cc1` [Compound 4, 6-(1H-Benzotriazole-5-carbonyl)-2-[3-(4-isopropyl-phenyl)-ureido]-4,5,6,7-tetrahydro-thieno[2,3-c]pyridine-3-carboxylic acid amide], the figure is below 1000 nM. The same measure, in the same setting: to `NC(=O)c1c(NC(=O)CCc2ccc(Cl)cc2)sc2c1CCN(C(=O)c1ccc3[nH]nnc3c1)C2` [Compound 5, 6-(1H-Benzotriazole-5-carbonyl)-2-[3-(4-chloro-phenyl)-propionylamino]-4,5,6,7-tetrahydro-thieno[2,3-c]pyridine-3-carboxylic acid amide] belongs below 1000 nM; to `NC(=O)c1c(NC(=O)CCc2ccc(Cl)cc2)sc2c1CCN(C(=O)c1ccc3[nH]c(=O)oc3c1)C2` [Compound 6, 2-[3-(4-Chloro-phenyl)-propionylamino]-6-(2-oxo-2,3-dihydro-benzooxazole-6-carbonyl)-4,5,6,7-tetrahydro-thieno[2,3-c]pyridine-3-carboxylic acid amide], below 1000 nM; to `CC(C)c1ccc(NC(=O)Nc2sc3c(c2C(N)=O)CCN(C(=O)c2ccc4[nH]c(=O)oc4c2)C3)cc1` [Compound 7, 2-[3-(4-Isopropyl-phenyl)-ureido]-6-(2-oxo-2,3-dihydro-benzooxazole-6-carbonyl)-4,5,6,7-tetrahydro-thieno[2,3-c]pyridine-3-carboxylic acid amide], below 1000 nM. Same read-out and setting: as for `NC(=O)c1c(NC(=O)Nc2cc(Cl)cc(Cl)c2)sc2c1CCN(C(=O)c1ccc3[nH]c(=O)oc3c1)C2` [Compound 8, 2-[3-(3,5-Dichloro-phenyl)-ureido]-6-(2-oxo-2,3-dihydro-benzooxazole-6-carbonyl)-4,5,6,7-tetrahydro-thieno[2,3-c]pyridine-3-carboxylic acid amide], the figure is below 10000 nM; as for `NC(=O)c1c(NC(=O)Cc2ccc(Cl)cc2F)sc2c1CCN(C(=O)c1ccc3[nH]nnc3c1)C2` [Compound 9, 6-(1H-Benzotriazole-5-carbonyl)-2-[2-(4-chloro-2-fluoro-phenyl)-acetylamino]-4,5,6,7-tetrahydro-thieno[2,3-c]pyridine-3-carboxylic acid amide], below 1000 nM.

For the compound `NC(=O)c1c(NC(=O)Cc2ccc(Cl)cc2F)sc2c1CCN(C(=O)c1ccc3[nH]c(=O)oc3c1)C2` [Compound 10, 2-[2-(4-Chloro-2-fluoro-phenyl)-acetylamino]-6-(2-oxo-2,3-dihydro-benzooxazole-6-carbonyl)-4,5,6,7-tetrahydro-thieno[2,3-c]pyridine-3-carboxylic acid amide], the half-maximal inhibitory concentration (IC50) was below 1000 nM. Take `NC(=O)c1c(NC(=O)Cc2cccc(Cl)c2)sc2c1CCN(C(=O)c1ccc3[nH]nnc3c1)C2` [Compound 11, 6-(1H-Benzotriazole-5-carbonyl)-2-[2-(3-chloro-phenyl)-acetylamino]-4,5,6,7-tetrahydro-thieno[2,3-c]pyridine-3-carboxylic acid amide]: the 50% inhibitory concentration (IC50) is below 1000 nM. The same measure, in the same setting: as for `NC(=O)c1c(NC(=O)Nc2cc(Cl)cc(Cl)c2)sc2c1CCN(C(=O)c1ccc3[nH]nnc3c1)C2` [Compound 12, 6-(1H-Benzotriazole-5-carbonyl)-2-[3-(3,5-dichloro-phenyl)-ureido]-4,5,6,7-tetrahydro-thieno[2,3-c]pyridine-3-carboxylic acid amide], the figure is below 10000 nM; as for `NC(=O)c1c(NC(=O)Cc2cccc(Cl)c2)sc2c1CCN(C(=O)c1ccc3[nH]c(=O)oc3c1)C2` [Compound 13, 2-[2-(3-Chloro-phenyl)-acetylamino]-6-(2-oxo-2,3-dihydro-benzooxazole-6-carbonyl)-4,5,6,7-tetrahydro-thieno[2,3-c]pyridine-3-carboxylic acid amide], below 1000 nM; as for `NC(=O)c1c(NC(=O)Cc2ccc(Cl)cc2)sc2c1CCN(C(=O)c1ccc3[nH]c(=O)oc3c1)C2` [Compound 14, 2-[2-(4-Chloro-phenyl)-acetylamino]-6-(2-oxo-2,3-dihydro-benzooxazole-6-carbonyl)-4,5,6,7-tetrahydro-thieno[2,3-c]pyridine-3-carboxylic acid amide], below 1000 nM.

Consider `NC(=O)c1c(NC(=O)Nc2ccc(Cl)cc2F)sc2c1CCN(C(=O)c1ccc3[nH]nnc3c1)C2` [Compound 15, 6-(1H-Benzotriazole-5-carbonyl)-2-[3-(4-chloro-2-fluoro-phenyl)-ureido]-4,5,6,7-tetrahydro-thieno[2,3-c]pyridine-3-carboxylic acid amide], for which the 50% inhibitory concentration (IC50) is below 1000 nM. Consider `NC(=O)c1c(NC(=O)Cc2ccc(Cl)cc2F)sc2c1CCN(Cc1cccnc1)C2` [Compound 16, 2-[2-(4-Chloro-2-fluoro-phenyl)-acetylamino]-6-pyridin-3-ylmethyl-4,5,6,7-tetrahydro-thieno[2,3-c]pyridine-3-carboxylic acid amide], for which the 50% inhibitory concentration (IC50) is below 30000 nM.

Regarding `NC(=O)c1c(NC(=O)Cc2ccc(Cl)cc2F)sc2c1CCN(Cc1ccccn1)C2` [Compound 17, 2-[2-(4-Chloro-2-fluoro-phenyl)-acetylamino]-6-pyridin-2-ylmethyl-4,5,6,7-tetrahydro-thieno[2,3-c]pyridine-3-carboxylic acid amide], the “% CTRL (1E−05)” value is listed as 66%. On the same count and under the same terms, as for `NC(=O)c1c(NC(=O)Nc2ccc(Cl)cc2)sc2c1CCN(Cc1ccccn1)C2` [Compound 18, 2-[3-(4-Chloro-phenyl)-ureido]-6-pyridin-2-ylmethyl-4,5,6,7-tetrahydro-thieno[2,3-c]pyridine-3-carboxylic acid amide], the figure is 88%. For the compound `NC(=O)c1c(NC(=O)Nc2ccc(Cl)cc2)sc2c1CCN(C(=O)c1cccnc1)C2` [Compound 19, 2-[3-(4-Chloro-phenyl)-ureido]-6-(pyridine-3-carbonyl)-4,5,6,7-tetrahydro-thieno[2,3-c]pyridine-3-carboxylic acid amide], the IC50 was below 10000 nM.

Consider `NC(=O)c1c(NC(=O)Nc2ccc(Cl)cc2)sc2c1CCN(Cc1ccncc1)C2` [Compound 20, 2-[3-(4-Chloro-phenyl)-ureido]-6-pyridin-4-ylmethyl-4,5,6,7-tetrahydro-thieno[2,3-c]pyridine-3-carboxylic acid amide], for which the concentration for half-maximal inhibition (IC50) was below 10000 nM. On to `NC(=O)c1c(NC(=O)Cc2ccc(Cl)cc2F)sc2c1CCN(Cc1ccncc1)C2` [Compound 21, 2-[2-(4-Chloro-2-fluoro-phenyl)-acetylamino]-6-pyridin-4-ylmethyl-4,5,6,7-tetrahydro-thieno[2,3-c]pyridine-3-carboxylic acid amide], for which the IC50 was below 10000 nM.

As to `NC(=O)c1c(NC(=O)Cc2ccc(Cl)cc2F)sc2c1CCN(C(=O)Cc1cccnc1)C2` [Compound 22, 2-[2-(4-Chloro-2-fluoro-phenyl)-acetylamino]-6-(2-pyridin-3-yl-acetyl)-4,5,6,7-tetrahydro-thieno[2,3-c]pyridine-3-carboxylic acid amide], the IC50 was below 10000 nM.

What is called IC50 is the concentration needed to halve the response being measured.
